Patent US9290768B2, “Engineered microorganisms having resistance to ionic liquids” (priority 2012, dated 2016)

Legend:
[1] = test system: Enterobacter lignolyticus SCF1; test: Growth of soil isolate in ionic liquid (IL resistance testing); format: cell-based; settings: Enterobacter lignolyticus SCF1, tropical rain forest soil isolate
Description: In testing for IL resistance in a tropical rain forest soil community, a bacterium that grows in up to 8% 1-ethyl-3-methylimidazolium chloride ([C2mim]Cl) was isolated. It is a Gram-negative anaerobe that is both lignocellulolytic and halotolerant: Enterobacter lignolyticus SCF1 (DeAngelis, et al., Standards in Genomic Sciences 5:69-85, 2011; Khudyakov, et al., Global transcriptome response to ionic liquid by a tropical rain forest soil bacterium, Enterobacter lignolyticus. Proc. Natl. Acad. Sci USA, 2012). We examined SCF1 to identify genes contributing to IL tolerance using various analyses, including screening an E. coli fosmid library containing SCF1 genomic DNA.

[2] = test system: E. coli containing an expression plasmid encoding the entire 2.6 kbp insert; test: Growth of E. coli carrying the 2.6 kbp SCF1 insert at different levels of [C2mim]Cl (shake flask growth assay); format: cell-based; settings: E. coli clones comprising the mfs1 gene sequence; FIG. 3
Description: FIG. 3 provides data from a 50-ml shake flask growth assay showing the resistance of E. coli containing the 2606 bp region to 4% and 6% [C2mim]Cl. Top panel: lines correspond to E. coli with common sequence; Enterobacter lignolyticus; and E. coli with empty vector; Middle panel (lines designated using hour 6 as a reference point): top line, E. coli with common sequence; middle line, Enterobacter lignolyticus; bottom line, E. coli with empty vector. Bottom panel: top line, E. coli with common sequence; middle line, Enterobacter lignolyticus; bottom line, E. coli with empty vector
SCF1 cells and E. coli containing an expression plasmid encoding the entire 2.6 kbp insert were tested at different levels of [C2mim]Cl.

TetR-repressor = test: MFS1-GFP fusion protein fluorescence (flow-cytometry), induction of repressor; format: cell-based, Enterobacter lignolyticus; settings: FIG. 5
Protocol: FIG. 5 provides illustrative data showing that [C2mim]Cl-inducible TetR-repressor regulates MFS-expression. […] In the absence of this repressor, the intergenic promoter-region was constitutively turned on (left columns in bar graph compared to right columns).
An SCF1 library was constructed using 30-50 kb genomic DNA inserts in fosmid vectors, and E. coli transformants were plated on 2% [C2mim]Cl for initial selection. GFP-fluorescence was measured by flow-cytometry.
In the absence of this repressor, the intergenic promoter-region was constitutively turned on.

[3] = test system: E. coli expressing the transporter gene; format: cell-based; settings: ionic liquids at equimolar levels; MFS1-expressing E. coli
Protocol: Top line, MFS/[C2mim]Cl; Second line from top, MFS/C2mim]Oac; Second line from bottom, empty vector//[C2mim]Cl; Bottom, line empty vector/C2mim]Oac
In one experiment, E. coli expressing the transporter gene were also cultured in media differing only in the type of imidazolium ionic liquid (at equimolar levels), to assess the influence of aliphatic chain lengths of the cation, and the anions Cl—, BuSO4-, and acetate.

E. coli = test: Methyl viologen tolerance of E. coli expressing MFS1; format: cell-based; settings: FIG. 6
Description: Bottom solid lines are empty vector and tetR-mfs.
The closest homologue of MFS1 is a methyl viologen transporter protein in K. oxytoca. MFS1 conferred tolerance to this compound in E. coli (FIG. 6).

CCn1cc[n+](C)c1.[Cl-] [[C2mim]Cl, 1-ethyl-3-methylimidazolium chloride]
ionic liquid level in which the bacterium grows [1]: up to 8%
ionic liquid level at which the clones exhibited resistance [2]: at least 6%
induction of the TetR-repressor / regulation of MFS1-expression (TetR-repressor): inducible

CC(=O)[O-].CCn1cc[n+](C)c1 [[C2mim]-Acetate, 1-ethyl-3-methylimidazolium acetate]
tolerance of E. coli expressing the transporter gene to the ionic liquid [3]: confers tolerance

C[n+]1ccc(-c2cc[n+](C)cc2)cc1 [methyl viologen]
tolerance of E. coli conferred by MFS1 (E. coli): confers tolerance

CCCCn1cc[n+](C)c1.[Cl-] [BMIM-Cl, 1-butyl-3-methylimidazolium chloride]
tolerance of E. coli expressing the transporter gene to the ionic liquid [3]: lower tolerance than with EMIM-Cl
